Measured values: the SangsterLogP compilation

Test: method code SF, from DOI: 10.1016/j.ejps.2012.10.019, PMID: 23131797
Conditions: pH 2.0

| Compound | logD |
| --- | --- |
| O=C(OCc1c(F)cccc1Cl)c1cccc(S(=O)(=O)N2CCCC2)c1 | 4.22 |
| COc1cccc(-n2c(SCc3cc(=O)n4ccsc4n3)nc3ccccc3c2=O)c1 | 3.56 |
| Cc1[nH]c2ccccc2c1C1=CN2CCS(=O)(=O)N=C2S1 | 1.56 |
| O=C(/C=C/c1ccc2c(c1)OCO2)Nc1ccc2c(c1)OCO2 | 3.72 |
| Cc1cccc(C)c1NC(=O)CNC(=O)C1CCN(S(=O)(=O)c2cccc(Cl)c2Cl)CC1 | 3.41 |

Same assay, conditions: pH 5.0

| Compound | logD |
| --- | --- |
| COC(=O)c1cnn2c(C(F)(F)F)cc(-c3cc(OC)c(OC)c(OC)c3)nc12 | 4.08 |
| O=C(OCC(=O)N1CCCC1)c1c2ccccc2cc2ccccc12 | 4.09 |
| O=C(Cn1cc(C(=O)C(F)(F)F)c2cc(Br)ccc21)N1CCCCCC1 | 4.62 |
| N#Cc1nc2c(S(=O)(=O)c3ccccc3)c(N)n(Cc3ccc(F)cc3)c2nc1C#N | 4.86 |
| CCOC(=O)c1ccc(NCc2c(C)[nH]c(C(=O)OCC)c2C)cc1 | 5.09 |
| COc1ccc(S(=O)(=O)N(CC(=O)Nc2cccc([N+](=O)[O-])c2)C2CCCCC2)cc1Cl | 5.48 |
| COc1ccc(C(C)=O)cc1COC(=O)c1cc(Cl)ccc1Cl | 4.45 |
| COC(=O)c1cccc(NC(=O)CCN2C(=O)c3ccccc3C2=O)c1 | 3.39 |
| Cc1cc(=O)oc2cc(OC(C)C)ccc12 | 3.33 |
| COc1cc2c(cc1OC)CN(C(=O)c1cccc(S(=O)(=O)N3CCCCC3)c1)CC2 | 4.2 |
| O=C1CCCC2=C1C(c1ccc(OCc3ccccc3F)cc1)C1=C(CCCC1=O)O2 | 4.92 |
| CCCCC(=O)Nc1ccc(F)c([N+](=O)[O-])c1 | 3.04 |
| CCCc1ccc(OCc2ccc(C(=O)Nc3ccccc3C(=O)OC)o2)c(OC)c1 | 5.89 |
| Cc1cc(C(=O)COC(=O)c2oc3ccccc3c2COC(C)C)c(C)n1-c1c(C)n(C)n(-c2ccccc2)c1=O | 5.39 |
| COCCCNC(=O)c1ccccc1C(F)(F)F | 2 |
| O=C(CS(=O)(=O)Cc1ccccc1)Nc1ccc2c(c1)OCCO2 | 3.19 |
| COc1ccc(NC(=O)c2cc(NC(=O)c3ccccc3)cc(C(=O)Nc3ccc(OC)cc3)c2)cc1 | 5.59 |
| Cc1cccc(C)c1NC(=O)CSc1nnnn1-c1ccc(OC(F)(F)F)cc1 | 4.82 |
| CCOC(=O)CSc1nnnn1-c1cccc2ccccc12 | 3.8 |
| COc1ccc(C(=O)CSc2nnc(-c3ccccc3)o2)cc1 | 4.15 |
| COc1ccc(-c2nnc(SCc3cc(=O)oc4ccc5ccccc5c34)n2N)cc1 | 4.24 |

| Compound | logD |
| --- | --- |
| COc1ccccc1Nc1nc(OCC(F)(F)F)nc(OCC(F)(F)F)n1 | 5.27 |
| NC(=O)c1cc(NC(=O)c2cc(C(F)(F)F)cc(C(F)(F)F)c2)cc(C(N)=O)c1 | 3.87 |
| O=[N+]([O-])c1cccc(-c2noc(CC3CCCCC3)n2)c1 | 5.17 |
| CC(C)N(Cc1nc(-c2ccccc2)no1)C(=O)c1ccccc1CCc1ccccc1 | 5.98 |
| O=C1c2ccc(-c3ccc4c(c3)C(=O)N(CCO)C4=O)cc2C(=O)N1CCO | 3.19 |
| O=C1CC(c2cccc([N+](=O)[O-])c2)CC2=C1C(c1ccco1)N(C(=O)C(F)(F)F)c1ccccc1N2 (configuration not stated) | 4.68 |
| CCc1nc2sc(C#N)c(N)n2c(=O)c1C#N | 2.09 |
| Cc1cccc(C(=O)Nc2ccc(NC(=O)c3ccccc3)c(C)c2)c1 | 4.14 |
| CCc1cc(=O)oc2c(C)c(OCC(=O)OC(C)(C)C)ccc12 | 4.52 |
| COc1cc2c(cc1NC(=O)COC(=O)c1cc(OC)c(OC)cc1[N+](=O)[O-])oc1ccccc12 | 5.04 |
| COc1ccc(C=O)cc1COc1c(F)c(F)cc(F)c1F | 4.24 |
| CSc1nc2c(C#N)c(SC)nn2c(-c2ccc(Cl)cc2)c1C#N | 5.51 |
| CCn1cc(CN(C)C(=O)c2cc3cc(Br)ccc3oc2=O)c(C)n1 | 3.27 |
| CCCS(=O)(=O)c1c(S(=O)(=O)CCC)c2cnccn2c1C(=O)c1ccc(C)cc1 | 3.93 |
| Cc1sc2nc(SCC(=O)N3CCCC3)n(C3CCCCC3)c(=O)c2c1C | 5.16 |
| COc1cccc(-c2cn3c4c(=O)n(C)c(=O)n(C)c4nc3n2-c2cccc(C)c2)c1 | 4.16 |
| O=C(COC(=O)c1ccccc1F)Nc1ccccc1 | 3.18 |
| O=C(c1ccc(F)cc1)C1CC1 | 2.61 |
| Cn1c2ccccc2n2c3nc(C#N)c(C#N)nc3c(C#N)c12 | 3.61 |
| CC(=O)Oc1cccc(N2C(=O)c3ccc(C(=O)c4ccc5c(c4)C(=O)N(c4cccc(OC(C)=O)c4)C5=O)cc3C2=O)c1 | 5.13 |
| COc1ccc(CCNC(=O)CSc2nc3c(c(=O)n(C)c(=O)n3C)n2Cc2ccccc2F)cc1OC | 4 |

Same assay, conditions: pH 6.5

| Compound | logD |
| --- | --- |
| CC(=O)Nc1nc2cc3sc(NC(C)=O)nc3cc2s1 | 3.13 |
| CC(C)(C)c1cc(C(F)(F)F)nc(SCCNC(=O)C2CCCCC2)n1 | 5.77 |
| CC1CCC2(CC1)N=C(c1ccccc1)C(=O)N2CC(=O)Nc1ccc2c(c1)OCCO2 (configuration not stated) | 5.07 |
| O=C(Nc1ccc(N2CCN(C(=O)c3ccco3)CC2)c(Cl)c1)c1c(F)c(F)c(F)c(F)c1F | 5.85 |
| CCOc1ccc(CC(=O)C2=C(N3CCCC3)CCCC2=O)cc1OCC | 3.3 |
| COc1cc(C(=O)COC(=O)CCCOc2ccc(Cl)cc2Cl)cc(OC)c1OC | 5.59 |
| O=C(COc1nnc(SCC(=O)c2ccc3c(c2)OCCO3)n1C1Cc2ccccc2C1)c1ccc(F)cc1 | 5.47 |

Same assay, conditions: pH 7.3

| Compound | logD |
| --- | --- |
| CCn1c(SCC(=O)Nc2ccc(C(=O)OC)cc2)nnc1-c1ccccc1 | 4.24 |
| CC(Sc1nnc(-c2ccc(F)cc2)n1-c1ccccc1)C(N)=O (configuration not stated) | 3.38 |
| CCn1c(SCc2nc3c4cnn(C)c4ncn3n2)nnc1-c1cc(C(F)(F)F)n(C)n1 | 3.85 |
| O=C(CSc1nnc(-c2ccccc2F)n1CCc1ccccc1)N1CCOCC1 | 3.79 |
| COC(=O)c1cc(OC)c(OC)cc1NC(=O)CSc1nncn1C | 2.78 |
| Cc1cc2ccccc2c(=O)n1CC(=O)NCC(=O)N1CCN(c2cccc(Cl)c2)CC1 | 4.45 |
| O=C(c1ccccc1)c1ccc(N2CCN(C(=O)c3c(F)cccc3F)CC2)c(F)c1 | 5.14 |
| COc1cccc(NC(=O)CSc2nnc3ccccn23)c1 | 2.45 |
| Cc1cccc(NC(=O)CSc2ccccn2)c1C | 3.19 |
| CCN1C(=O)c2cccc3c(S(=O)(=O)N(C(=O)c4cccnc4)c4ccc(OC)cc4)ccc1c23 | 4.74 |

Same assay, conditions: pH 8.0

| Compound | logD |
| --- | --- |
| CSc1ncccc1C(=O)OCC(=O)Nc1c(C)n(C)n(-c2ccccc2)c1=O | 3.63 |
| CCOC(=O)c1nc(N)sc1C | 1.74 |

Same assay, conditions: pH 10.0

| Compound | logD |
| --- | --- |
| Nc1ccccc1Nc1ccccc1 | 2.67 |
| O=C(c1ccc2c(c1)C(=O)N(c1nccs1)C2=O)c1ccc2c(c1)C(=O)N(c1nccs1)C2=O | 3.25 |
| Nc1nc2nc3nc(N)sc3cc2s1 | 1.56 |

Same assay, conditions: pH 10.5

| Compound | logD |
| --- | --- |
| CC(C)(C)c1cc(-c2nc(-c3ccc(C(F)(F)F)cn3)no2)n(Cc2ccccc2)n1 | 6.58 |
| CCn1c(SCc2ccccc2F)nc2sc(C)c(C)c2c1=O | 5.86 |
| Nc1cccc2c1C(=O)N(C(=O)c1cc(-c3ccccc3Cl)nc3ccccc13)C2=O | 4.63 |
| CCc1ccc2nc3c(cc2c1)c(=O)n(-c1ccccc1)c1c3c(=O)n(C)c(=O)n1C | 4.31 |
| CCOC(=O)N1CCN(c2nc(C(F)(F)F)nc3c(C)cc(C)cc23)CC1 | 5.92 |
| CCNc1nc(NC(C)C)nc(Oc2ccc(OCC)nn2)n1 | 3.14 |
| Cc1nc(N(C)C)c2sc(=S)n(-c3ccccc3)c2n1 | 3.62 |
| CCCNC(=O)N1CCN(C(=O)NCCC)CC1 | 1.04 |
